According to patent US4774248A, “Methods of treating depression and depressive states using 5-phenyl-1,4,5,6-tetrahydropyrimidine derivatives” (priority 1985, dated 1988):
“Also recorded” adds a separate entry of the source.

How the values were obtained:
male mice = assay: Acute toxicity, intraperitoneal (LD0, LD30, LD60, LD100); format: in vivo
Experimental: (§1) The results of toxicological and neuropsychopharmacological tests which were carried out with the products according to the invention have been summarized below. In these tests, solutions of the said products in distilled water were administered intraperitoneally in a volume of 20 ml/kg to male mice and in a volume of 5 ml/kg to male rats.

mice [1] = assay: Overall behavior and reactivities in mice; format: in vivo; settings: i.p.
Experimental: as §1
(§2) Groups of 3 animals are observed before and then 0.25 h, 0.50 h, 1 h, 2 h, 3 h and 24 h after the administration of CRL 41 378. The following observations are made:
(§3) Groups of 3 animals are observed before and then 0.25 h, 0.50 h, 1 h, 2 h, 3 h and 24 h after the administration of CRL 41 329.

rats = assay: Overall behavior and reactivities in rats; format: in vivo; settings: i.p.
Experimental: as §1, §2, §3

[2] = test system: hypothermia, righting behavior and stereotypies induced by apomorphine; assay: Interaction with apomorphine in mice; format: in vivo; settings: i.p.
Experimental: as §1
CRL 41 378 is administered to groups of 6 mice 30 minutes before the subcutaneous injection of 1 or 16 mg/kg of apomorphine.

[3] = test system: stereotypies induced by amphetamine; assay: Interaction with amphetamine (rats); format: in vivo; settings: i.p.; amphetamine 2 mg/kg
Experimental: as §1
Amphetamine (2 mg/kg) is injected intraperitoneally into groups of 6 rats 30 minutes after the administration of CRL 41 378.

[4] = test system: hypothermia and ptosis induced by reserpine; assay: Interaction with reserpine; format: in vivo; settings: mice, i.p.; reserpine 2.5 mg/kg
Experimental: as §1
Four hours after the intraperitoneal injection of 2.5 mg/kg of reserpine, groups of 12 mice receive CRL 41 378.

[5] = test system: hypothermia, trembling and peripheral cholinergic symptoms induced by oxotremorine; assay: Interaction with oxotremorine; format: in vivo; settings: mice, i.p.; oxotremorine 0.5 mg/kg
Experimental: as §1
CRL 41 378 is administered to groups of 6 mice 0.5 h before the intraperitoneal injection of 0.5 mg/kg of oxotremorine.

mice [6] = assay: Electric shock; format: in vivo; settings: i.p.
Experimental: as §1
The test is performed on groups of 10 mice 30 minutes after the administration of CRL 41 378.

mice [7] = assay: Intergroup aggressiveness; format: in vivo; settings: mice, i.p.
Experimental: as §1
After they have stayed for 3 weeks in the two halves of a cage divided by an opaque partition, groups of 3 mice receive CRL 41 378. Half an hour later, the two groups from the same cage are brought together by removal of the partition and the number of fights which occur in 10 minutes is noted.

mice [8] = assay: Motility reduced by hypoxic aggression (acute hypobaric anoxia); format: in vivo; settings: i.p.
Experimental: In these tests, solutions of the said products in distilled water were administered intraperitoneally in a volume of 20 ml/kg to male mice and in a volume of 5 ml/kg to male rats.

mice [9] = assay: Asphyxiant anoxia caused by gallamine triiodoethylate; format: in vivo; settings: i.p., gallamine triiodoethylate 32 mg/kg
Experimental: as §1
Groups of 10 mice receive CRL 41 378 30 minutes before the intraperitoneal administration of 32 mg/kg of gallamine triiodoethylate (reference curarizing agent).

mice [10] = assay: Behavioral despair (forced immersion); format: in vivo; settings: mice which have been forcibly immersed, i.p.
Experimental: as §1
Half an hour after they have received CRL 41 378, groups of 6 mice are placed in a beaker filled with water to a height of 6 cm. The total period of immobility between the 2nd and 6th minutes following immersion is noted.

[11] = test system: central nervous system (CNS); assay: Neuropsychopharmacological profile (conclusions of the tests); format: in vivo, mice and rats
Experimental: as §1

[12] = test system: hypothermia induced by apomorphine; assay: Interaction with apomorphine by gastric administration; format: in vivo; settings: Mus musculus, male mice, apomorphine 16 mg/kg s.c., read-out: dose as from which the hypothermia induced by apomorphine is opposed
Experimental: Each test product is administered gastrically to male mice, in a volume of 20 ml/kg, 0.50 h before the subcutaneous injection of 16 mg/kg of apomorphine.

anesthetized dogs [13] = assay: Cardiovascular study in anesthetized dogs; format: in vivo
Experimental: Groups of 2 adult dogs (each weighing 10 to 18 kg), anesthetized with nembutal, receive each test product (i) by intraduodenal administration at successive doses of 0.1 mg/kg, 0.5 mg/kg, 1 mg/kg, 2.5 mg/kg, 5 mg/kb, 10 mg/kg and 20 mg/kg, and then (ii) if appropriate, by intravenous administration at a dose of 10 mg/kg. The effects of 10 μg/kg of isoprenaline and/or 2 μg/kg of norepinephrine after the intraduodenal administration of a cumulative dose of 39.1 mg/kg are also assessed.
The following are measured: the total arterial blood pressure, the diastolic arterial blood pressure, the heart rate, the blood flows through the femoral and cerebral arteries and saphenous veins, the rectal temperature, the skin temperature and the pressure of the gases (essentially O2) dissolved in the arterial blood.

[14] = test system: trembling and head twitches induced by 5-hydroxytryptophan (5-HTP); assay: Interaction with 5-hydroxytryptophan in association with an MAOI (nialamide); format: in vivo, male mice
Experimental: The purpose of the procedure used is to investigate the activity of each product according to the invention as regards the trembling induced by 5-hydroxytryptophan (5-HTP) in association with an MAOI (in this case nialamide).
Each test product, in solution in distilled water, is administered intraperitoneally in a volume of 20 ml/kg to male mice.
Groups of 10 mice receive nialamide (20 mg/kg, administered gastrically) at time T-18 h, each test product at time T-0.5 h and then (±)-5-HTP (20 mg/kg, administered intraperitoneally) at time T. Immediately after the injection of the (±)-5-HTP, the mice are individually placed in transparent plastic boxes. The generalized trembling, the partial trembling and the head twitches are noted on a yes/no basis for 2 h.

pregnant rabbits = assay: Teratogenic effects on pregnant rabbits; format: in vivo
[15] = test system: depressions and depressive states; assay: Clinical trials in depression and depressive states; format: in vivo, human; settings: daily oral administration to adults
Experimental: The clinical trials which have been undertaken have made it possible to determine that the daily dose to be administered orally to adults, in the treatment of depressions and depressive states, is generally between 3 and 120 mg for the products of the formulae Ia and Ib according to the invention.

anesthetized dogs [16] = assay: Cardiovascular study in anesthetized dogs; format: in vivo; settings: intraduodenal
chicken embryos = settings: D. G. UPSHALL, Teratology, 1972; cited from earlier work
[17] = i.p., nialamide + (±)-5-HTP, male mice

Question: What does the source list for `Cl.Fc1ccccc1C1CN=CNC1` (centres unmarked) [CRL 41 329, 5-(2-fluorophenyl)-1,4,5,6-tetrahydropyrimidine hydrochloride]?
Answer: toxic signs in the animals treated (male mice; 64 mg/kg i.p.): all the animals treated exhibit salivation, sedation and vasodilation of the tail; toxic signs in the animals treated (male mice; 128 mg/kg i.p.): all the animals have asphyxiant convulsions; LD0 (maximum non-lethal dose) (male mice; intraperitoneal): greater than 64 mg/kg; LD100 (minimum dose lethal to all the animals) (male mice; intraperitoneal): ~128 mg/kg; overall behavior and reactivities (mice [1]; 0.5 mg/kg): moderate mydriasis for 2 h; overall behavior and reactivities (mice [1]; 2 mg/kg, hydrochloride): sedation (2 out of 3 animals) for 0.5 h; also recorded: moderate and brief mydriasis for 0.5 h; overall behavior and reactivities (mice [1]; 8 mg/kg, hydrochloride): sedation (2 out of 3 animals) for 0.5 h; also recorded: weak and brief mydriasis for 0.5 h; overall behavior and reactivities (mice [1]; 32 mg/kg): sedation (3/3) 0.25 h after administration, then (2/3) 0.5 h after administration; overall behavior and reactivities (rats; 0.25 mg/kg): moderate mydriasis for 3 h; overall behavior and reactivities (rats; 1 mg/kg): significant mydriasis for 3 h; overall behavior and reactivities (rats; 4 mg/kg, hydrochloride): sedation (3/3) for 2 h; also recorded: a decrease in the reactivity to touch and the muscle tone; also recorded: piloerection (1/3) for 1 h; also recorded: significant mydriasis for at least 3 h (mydriasis still being apparent 24 h after administration); overall behavior and reactivities (rats; 16 mg/kg, hydrochloride): sedation (3/3) for 3 h; also recorded: a decrease in the reactivity to touch and the muscle tone; also recorded: significant mydriasis for 3 h (the mydriasis still being apparent 24 h after administration); action on hypothermia induced by apomorphine [2]: significant antagonism of the hypothermia induced by apomorphine, oxotremorine and reserpine; action on stereotypies induced by amphetamine [3]: potentiates the stereotypies induced by amphetamine; action on hypothermia induced by reserpine [4]: significant antagonism of the hypothermia induced by apomorphine, oxotremorine and reserpine; action on hypothermia induced by oxotremorine [5]: significant antagonism of the hypothermia induced by apomorphine, oxotremorine and reserpine; lethal effects of electric shock (mice [6]): aggravation of the lethal effects of electric shock and gallamine triiodoethylate in mice; intergroup aggressiveness (number of fights) (mice [7]): a decrease in the intergroup aggressiveness in mice; motor recovery after acute hypobaric hypoxia (mice [8]): a decrease in the motor recovery after hypoxic aggression; time taken for convulsions and death / lethal effects of gallamine triiodoethylate (mice [9]): aggravation of the lethal effects of electric shock and gallamine triiodoethylate in mice; period of immobility (mice [10]): no decrease in the period of immobility due to "despair"; antidepressant effects ([11]; i.p.): antidepressant effects appearing at all the doses used; peripheral α-adrenergic stimulant effects ([11]; i.p.): modest effects capable of reflecting peripheral α-adrenergic stimulation; sedative effects ([11]; i.p., hydrochloride): sedative effects appearing at high doses; also recorded: sedation with hypomotility; also recorded: low-intensity transient hypothermia; minimal effective dose [12]: ≥ 0.25 mg/kg; rectal temperature (anesthetized dogs [13]): increases the rectal temperature; skin temperature (anesthetized dogs [13]): increases the rectal temperature and skin temperature; arterial blood pressure (anesthetized dogs [13]; intraduodenal): tends to increase the arterial blood pressure; heart rate (anesthetized dogs [13]; intraduodenal): decrease the heart rate; mydriasis and salivation (anesthetized dogs [13]; intraduodenal): causes mydriasis and substantial salivation; respiratory arrhythmia (anesthetized dogs [13]; intraduodenal): causing respiratory arrhythmia; effects of isoprenaline (anesthetized dogs [13]; isoprenaline 10 μg/kg): does not cause a distinct modification of the effects of isoprenaline on the diastolic arterial blood pressure and the heart rate; hypertension induced by norepinephrine (anesthetized dogs [13]; norepinephrine 2 μg/kg): decreases the hypertension induced by norepinephrine; analogy with β-adrenergic stimulants in the 5-HTP procedure ([14]; 5-HTP + MAOI): effects analogous to those of isoprenaline; intensity of potentiation of 5-HTP effects ([14]; higher doses, 5-HTP + MAOI, male mice): the potentiation being very intense at the doses of 8 to 32 mg/kg; head twitches [14, 17]: distinctly potentiate the partial trembling and the head twitches; partial trembling [14, 17]: distinctly potentiate the partial trembling and the head twitches; teratogenic effects (pregnant rabbits): devoid of harmful teratogenic effects on pregnant rabbits; results in human therapy (depression) [15]: excellent results; blood flows through the femoral and vertebral arteries (anesthetized dogs [16]): decreases the blood flows in the femoral and vertebral arteries

Question: Which “LD0 (maximum non-lethal dose)” value (male mice; intraperitoneal) does the source give for `CC1(C)NCC(O)(c2ccccc2)CN1` [CRL 41 365, 2,2-dimethyl-5-hydroxy-5-phenyl-1,2,3,4,5,6-hexahydropyrimidine] here?
Answer: The value was “greater than 512 mg/kg”.

Question: What about the “overall behavior and reactivities” value (mice [1]; 256 mg/kg) of the same compound?
Answer: Its value is “sedation, for 1 h; also recorded: a decrease in the heart rate for 1 h; also recorded: a decrease in the reactivity to touch for 0.5 h; also recorded: hypothermia for 3 h”.

Question: And the “hypothermia, maximum intensity” value (mice [1]; 256 mg/kg, 0.5 h after administration)?
Answer: The value was -1.6 °C.

Question: What about the “overall behavior and reactivities” value (mice [1]; 16 and 64 mg/kg) of the same compound?
Answer: The value was “no distinct modification of the behavior and reactivities compared with the control animals”.

Question: What about the “overall behavior and reactivities” value (rats; 8 mg/kg) of the same compound?
Answer: Its value is “no distinct modification of the behavior and reactivities compared with the control animals”.

Question: What about the “overall behavior and reactivities” value (rats; 32 mg/kg) of the same compound?
Answer: Its value is “sedation and a decrease in the breathing rate for 1 h; also recorded: a decrease in the reactivity to touch for 0.5 h”.

Question: What about the “overall behavior and reactivities” value (rats; 128 mg/kg) of the same compound?
Answer: The value was “sedation and a decrease in the breathing rate for 3 h; also recorded: a decrease in the reactivity to touch for 1 h”.

Question: What about the “action on stereotypies induced by amphetamine” value [3] of the same compound?
Answer: Its value is “at all the doses studied, this product potentiates the stereotypies induced by amphetamine”.

Question: What about the period of immobility (mice [10]) of the same compound?
Answer: The period of immobility was “a very moderate decrease in the period of immobility of mice which have been forcibly immersed”.

Question: What about the sedative effects ([11]; i.p.) of the same compound?
Answer: The sedative effects was “sedation with a decrease in the reactivities in rats and mice, hypothermia in mice”.

Question: And the overall neuropsychopharmacological profile ([11]; summary)?
Answer: Its overall neuropsychopharmacological profile is “essentially a sedative”.

Question: With `c1ccc(C2=NCCCN2)cc1` [compound No. 2] as the compound, how does the teratogenic effect (chicken embryos) read?
Answer: Its teratogenic effect is “teratogenic”.

Question: For `Clc1ccc(C2CCNC=N2)cc1` (centres unmarked) [compound No. 18], which teratogenic effect (chicken embryos) is on record?
Answer: Its teratogenic effect is “absence of teratogenic effects on chicken embryos”.
